The text below walks through data of patent US4201843A, “Process for manufacturing tylosin derivatives” (Sanraku Ocean Co., Ltd., priority 1975, dated 1980).

Structures are written as SMILES. Converted amounts (≈) assume the structure as drawn. Bounds are passed on as bounds.

Data set [1] concerns Staphylococcus aureus MS 9610. Put plainly: minimum growth-inhibitory concentration. The class given is cell-based. The note with it: MS9610; Staphylococcus aureus MS 9610, drug resistant strain. As for the experimental part: (§1) The antimicrobial spectra of new tylosin derivatives of this invention are shown in Table 2 by listing the minimum growth inhibitory concentrations (MIC, mcg/ml). […] The toxicity of these compounds was tested in animals by intravenous administration, and the LD50 values in mice are more than 400 mg/kg with all compounds. In therapeutical experiments with mice manually infected by Staphilococcus aureus SMITH, the ED50 values were less than 50 mg/kg (p.o.) with all said tylosin derivatives.
(§2) The strains marked * in Table 2 are the drug resistant strains isolated from patients, namely, Staphilococcus aureus MS-9610 which is resistant to penicillin, tetracycline, erythromycin, leucomycin, spiramycin, josamycin and tylosin, Staphilococcus aureus MS-8710 which is resistant to penicillin, tetracycline, erythromycin, leucomycin and tylosin, and Streptococcus pyogenes MH 771 which is resistant to erythromycin, oleandomycin, leucomycin and tylosin.

The subject of data set [2] is Staphylococcus aureus MS 8710. In words: minimum growth-inhibitory concentration. Type of data set: cell-based. The note with it: MS8710; Staphylococcus aureus MS 8710, drug resistant strain. As for the experimental part: as §1, §2
For data set [3], the system named is Streptococcus pyogenes MH 771. Put plainly: minimum growth-inhibitory concentration. The class given is cell-based. The following applies: MH771, read-out: minimum growth-inhibitory concentration (MIC). As for the experimental part:
as §1
(broth-dilution method)
as §2

Data set [4] has as its system Pseudomonas fluorescens NIHJB 254. In words: minimum growth-inhibitory concentration. Type of data set: cell-based. The following applies: NIHJB254. As for the experimental part:
as §1

The test system of data set [5] is Staphylococcus aureus FAD209P. In words: minimum growth-inhibitory concentration. The class given is cell-based. The following applies: read-out: minimum growth-inhibitory concentration (MIC). As for the experimental part: as §1
Data set [6] concerns Proteus morganii (The Institute for Infectious Diseases). Put plainly: minimum growth-inhibitory concentration. The following applies: Morganella morganii. Type of data set: cell-based. As for the experimental part:
as §1

The next data set deals with Sarcina lutea ATCC 9341. In words: minimum growth-inhibitory concentration. The note with it: Micrococcus luteus, ATCC9341. Type of data set: cell-based. As for the experimental part:
as §1

For data set [7], the system named is Staphylococcus aureus SMITH. In words: minimum growth-inhibitory concentration. The class given is cell-based. As for the experimental part:
as §1

A further data set relates to Micrococcus flavus I. Put plainly: minimum growth-inhibitory concentration. Type of data set: cell-based. As for the experimental part: as §1
Data set [8] concerns Candida albicans IAM 4905. Put plainly: minimum growth-inhibitory concentration. The class given is cell-based. The note with it: IAM4905. As for the experimental part:
as §1

Data set [9] has as its system Corynebacterium bovis 1810. Put plainly: minimum growth-inhibitory concentration. Type of data set: cell-based. As for the experimental part:
as §1

For data set [10], the system named is Bacillus subtilis ATCC 6633. In words: minimum growth-inhibitory concentration. The following applies: ATCC6633. The class given is cell-based. As for the experimental part:
as §1

Data set [11] deals with Bacillus cereus ATCC 9634. In words: minimum growth-inhibitory concentration. Type of data set: cell-based. The note with it: ATCC9634. As for the experimental part: as §1
Data set [12] deals with Mycobacterium smegmatis ATCC 607. Put plainly: minimum growth-inhibitory concentration. The class given is cell-based. The following applies: Mycolicibacterium smegmatis, ATCC607. As for the experimental part: as §1
Data set [13] relates to Bacillus megaterium NRRL B-938. In words: minimum growth-inhibitory concentration. The class given is cell-based. The following applies: Priestia megaterium, NRRLB938. As for the experimental part: as §1
Data set [14] concerns Escherichia coli (National Institute of Health). Put plainly: minimum growth-inhibitory concentration. The class given is cell-based. As for the experimental part:
as §1

Data set [15] relates to Candida tropicalis IAM 4924. Put plainly: minimum growth-inhibitory concentration. Type of data set: cell-based. The following applies: IAM4924. As for the experimental part: as §1
On the set-up of data set [16]: species or system mice. The note with it: mouse, in vivo, po, 100 mg/kg. As for the experimental part:
Another phase of advantages of the said tylosin derivatives is their high blood levels in animals. When each of these compounds is orally administered to mice in a dose of 100 mg/kg, their concentrations in blood were measured to be 5-20 mcg/ml, a substantially high value compared to that of tylosin (<1 mcg/ml). […] Their concentrations in blood one hour after administration reached up to 15-20 mcg/ml.

As for `CC[C@H]1OC(=O)C[C@@H](O)[C@H](C)[C@@H](O[C@@H]2O[C@H](C)[C@@H](O[C@H]3C[C@@](C)(O)[C@@H](O)[C@H](C)O3)[C@H](N(C)C)[C@H]2O)[C@@H](CC=O)C[C@@H](C)C(=O)/C=C/C(C)=C/[C@@H]1CO[C@@H]1O[C@H](C)[C@@H](O)[C@@H](OC)[C@H]1OC` [tylosin], the MIC is greater than 250 µg/mL in data set [1]; greater than 250 µg/mL in data set [2]; 250 µg/mL (≈ 273 µM) in data set [3]; greater than 250 µg/mL in data set [4]; 0.49 µg/mL (≈ 0.535 µM) in data set [5]; greater than 250 µg/mL in [6]. Also, the MIC was 0.12 µg/mL (≈ 0.131 µM) in the data set with Sarcina lutea ATCC 9341; 0.25 µg/mL (≈ 0.273 µM) in data set [7]; 0.12 µg/mL (≈ 0.131 µM) in the data set with Micrococcus flavus I; greater than 250 µg/mL in [8]; 0.5 µg/mL (≈ 0.546 µM) in data set [9]; 0.49 µg/mL (≈ 0.535 µM) in data set [10]. Also, the MIC in data set [11] was 0.49 µg/mL (≈ 0.535 µM); in data set [12] it was 7.81 µg/mL (≈ 8.53 µM); in [13], 0.25 µg/mL (≈ 0.273 µM); in data set [14], 250 µg/mL (≈ 273 µM); in [15] it was greater than 250 µg/mL. The compound also yielded a concentration in blood in data set [16] of less than 1000 ng/mL.
